Patent US8362000B2, “Azetidinyl diamides as monoacylglycerol lipase inhibitors” (Janssen Pharmaceutica NV, priority 2009, dated 2013)

Molecular target: T1, mutant MGL (Homo sapiens, UniProt Q99685, L169S/L176S)
T1 sequence (Q99685 1-303 L169S/L176S): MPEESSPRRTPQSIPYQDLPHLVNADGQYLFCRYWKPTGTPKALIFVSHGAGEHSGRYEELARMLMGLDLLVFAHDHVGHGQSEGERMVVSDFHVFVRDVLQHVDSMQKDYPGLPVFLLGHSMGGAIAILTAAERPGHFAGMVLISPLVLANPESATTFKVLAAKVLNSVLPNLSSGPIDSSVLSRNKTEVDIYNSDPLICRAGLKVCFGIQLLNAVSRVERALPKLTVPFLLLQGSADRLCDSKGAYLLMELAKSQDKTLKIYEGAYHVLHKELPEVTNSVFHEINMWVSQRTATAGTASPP
Experiment: MGL ThermoFluor assay - mutant
Format: binding
Settings: ThermoFluor concentration-response, read-out: MGL mutant ThermoFluor Kd

Work on O=C(c1cscn1)N1CCN(C2CN(C(=O)[C@@H]3C[C@H]3c3ccc(SC(F)(F)F)cc3)C2)CC1 (racemic) [Cpd 645, 1-(1,3-Thiazol-4-ylcarbonyl)-4-(1-{[(1RS,2RS)-2-{4-[(trifluoromethyl)sulfanyl]phenyl}cyclopropyl]carbonyl}azetidin-3-yl)piperazine] yielded a Kd of 5440 nM.

O=C(c1ccccc1)N1CCN(C2CN(C(=O)c3ccc(C4CCCCC4)cc3)C2)CC1 [Cpd 1, 1-{1-[(4-Cyclohexylphenyl)carbonyl]azetidin-3-yl}-4-(phenylcarbonyl)-piperazine] showed a Kd of 5.9 nM.

For Cn1ccnc1C(=O)N1CCN(C2CN(C(=O)c3ccc(C4CCCCC4)cc3)C2)CC1 [Cpd 3, 1-{1-[(4-Cyclohexylphenyl)carbonyl]azetidin-3-yl}-4-[(1-methyl-1H-imidazol-2-yl)carbonyl]piperazine], the Kd was 2500 nM.

Molecule O=C(c1ccc(C2CCCCC2)cc1)N1CC(N2CCN(C(=O)c3ccccn3)CC2)C1 [Cpd 4, 1-{1-[(4-Cyclohexylphenyl)carbonyl]azetidin-3-yl}-4-(pyridin-2-ylcarbonyl)piperazine] has a Kd of 143 nM.

With O=C(c1ccc(-c2ccccc2)cc1)N1CC(N2CCN(C(=O)c3cncs3)CC2)C1 [Cpd 8, 1-[1-(Biphenyl-4-ylcarbonyl)azetidin-3-yl]-4-(1,3-thiazol-5-ylcarbonyl)piperazine] the Kd was 111 nM.

Work on Cc1nc(C(=O)N2CCN(C3CN(C(=O)c4ccc(-c5ccccc5)cc4)C3)CC2)cs1 [Cpd 10, 1-[1-(Biphenyl-4-ylcarbonyl)azetidin-3-yl]-4-[(2-methyl-1,3-thiazol-4-yl)carbonyl]piperazine] yielded a Kd of 556 nM.

Cn1cccc1C(=O)N1CCN(C2CN(C(=O)c3ccc(-c4ccccc4)cc3)C2)CC1 [Cpd 11, 1-[1-(Biphenyl-4-ylcarbonyl)azetidin-3-yl]-4-[(1-methyl-1H-pyrrol-2-yl)carbonyl]piperazine] gave a Kd of 454 nM.

Work on Cc1ccc(C(=O)N2CCN(C3CN(C(=O)c4ccc(-c5ccccc5)cc4)C3)CC2)s1 [Cpd 14, 1-[1-(Biphenyl-4-ylcarbonyl)azetidin-3-yl]-4-[(5-methylthiophen-2-yl)carbonyl]piperazine] yielded a Kd of 250 nM.

O=C(c1ccc(-c2ccccc2)cc1)N1CC(N2CCN(C(=O)c3ccc(Br)s3)CC2)C1 [Cpd 15, 1-[1-(Biphenyl-4-ylcarbonyl)azetidin-3-yl]-4-[(5-bromothiophen-2-yl)carbonyl]piperazine] gave a Kd of 286 nM.

Cc1cc(Br)ccc1C(=O)N1CC(N2CCN(C(=O)c3ccccc3)CC2)C1 [Cpd 22, 1-{1-[(4-Bromo-2-methylphenyl)carbonyl]azetidin-3-yl}-4-(phenylcarbonyl)piperazine] gave a Kd greater than 76700 nM.

For COc1cc(C(=O)N2CC(N3CCN(C(=O)c4cscn4)CC3)C2)ccc1Br [Cpd 23, 1-{1-[(4-Bromo-3-methoxyphenyl)carbonyl]azetidin-3-yl}-4-(1,3-thiazol-4-ylcarbonyl)piperazine], the Kd was 5000 nM.

In the case of COc1cc(C(=O)N2CC(N3CCN(C(=O)c4ccccc4)CC3)C2)ccc1Br [Cpd 24, 1-{1-[(4-Bromo-3-methoxyphenyl)carbonyl]azetidin-3-yl}-4-(phenylcarbonyl)piperazine], the Kd is reported as 5000 nM.

O=C(c1cscn1)N1CCN(C2CN(C(=O)c3ccc(Br)cc3Cl)C2)CC1 [Cpd 25, 1-{1-[(4-Bromo-2-chlorophenyl)carbonyl]azetidin-3-yl}-4-(1,3-thiazol-4-ylcarbonyl)piperazine] was tested, and the Kd was 10000 nM.

O=C(c1ccccc1)N1CCN(C2CN(C(=O)c3ccc(Br)cc3)C2)CC1 [Cpd 27, 1-{1-[(4-Bromophenyl)carbonyl]azetidin-3-yl}-4-(phenylcarbonyl)piperazine] was tested, and the Kd was 4550 nM.

In the case of O=C(c1ccccc1)N1CCN(C2CN(C(=O)c3ccc(-n4cccc4)cc3)C2)CC1 [Cpd 28, 1-(Phenylcarbonyl)-4-(1-{[4-(1H-pyrrol-1-yl)phenyl]carbonyl}azetidin-3-yl)piperazine], the Kd is reported as 370 nM.

O=C(c1ccccc1)N1CCN(C2CN(C(=O)c3ccc(N4CCCC4)cc3)C2)CC1 [Cpd 29, 1-(Phenylcarbonyl)-4-{1-[(4-pyrrolidin-1-ylphenyl)carbonyl]azetidin-3-yl}piperazine] was tested, and the Kd was 100 nM.

CCN(CC)c1ccc(C(=O)N2CC(N3CCN(C(=O)c4ccccc4)CC3)C2)cc1 [Cpd 30, N,N-Diethyl-4-({3-[4-(phenylcarbonyl)piperazin-1-yl]azetidin-1-yl}carbonyl)aniline] gave a Kd of 118 nM.

CN(C)c1ccc(C(=O)N2CC(N3CCN(C(=O)c4ccccc4)CC3)C2)cc1 [Cpd 31, N,N-Dimethyl-4-({3-[4-(phenylcarbonyl)piperazin-1-yl]azetidin-1-yl}carbonyl)aniline] showed a Kd of 1430 nM.

For O=C(c1ccccc1)N1CCN(C2CN(C(=O)c3ccc(Oc4ccccc4)cc3)C2)CC1 [Cpd 32, 1-{1-[(4-Phenoxyphenyl)carbonyl]azetidin-3-yl}-4-(phenylcarbonyl)piperazine], the Kd was 192 nM.

In the case of O=C(c1ccccc1)N1CCN(C2CN(C(=O)c3ccc(-c4ccc(F)cc4)cc3)C2)CC1 [Cpd 33, 1-{1-[(4′-Fluorobiphenyl-4-yl)carbonyl]azetidin-3-yl}-4-(phenylcarbonyl)piperazine], the Kd is reported as 9.1 nM.

In the case of COc1ccc(-c2ccc(C(=O)N3CC(N4CCN(C(=O)c5ccccc5)CC4)C3)cc2)cc1 [Cpd 34, 1-{1-[(4′-Methoxybiphenyl-4-yl)carbonyl]azetidin-3-yl}-4-(phenylcarbonyl)piperazine], the Kd is reported as 588 nM.

For O=C(c1ccccc1)N1CCN(C2CN(C(=O)c3ccc(OCc4ccccc4)cc3)C2)CC1 [Cpd 35, 1-(1-{[4-(Benzyloxy)phenyl]carbonyl}azetidin-3-yl)-4-(phenylcarbonyl)piperazine], the Kd was 83.3 nM.

With O=C(c1ccccc1)N1CCN(C2CN(C(=O)c3ccc(-c4ccccc4Cl)cc3)C2)CC1 [Cpd 36, 1-{1-[(2′-Chlorobiphenyl-4-yl)carbonyl]azetidin-3-yl}-4-(phenylcarbonyl)piperazine] the Kd was 37 nM.

CC(C)n1c(C(F)(F)F)nc2cc(C(=O)N3CC(N4CCN(C(=O)c5ccccc5)CC4)C3)ccc21 [Cpd 38, 1-(1-Methylethyl)-5-({3-[4-(phenylcarbonyl)piperazin-1-yl]azetidin-1-yl}carbonyl)-2-(trifluoromethyl)-1H-benzimidazole] was tested, and the Kd was 182 nM.

CCCn1ccc2cc(C(=O)N3CC(N4CCN(C(=O)c5ccccc5)CC4)C3)ccc21 [Cpd 42, 5-({3-[4-(Phenylcarbonyl)piperazin-1-yl]azetidin-1-yl}carbonyl)-1-propyl-1H-indole] was tested, and the Kd was 83.3 nM.

Molecule O=C(c1ccccc1)N1CCN(C2CN(C(=O)c3ccc(-n4cnc5ccccc54)cc3)C2)CC1 [Cpd 48, 1-[4-({3-[4-(Phenylcarbonyl)piperazin-1-yl]azetidin-1-yl}carbonyl)phenyl]-1H-benzimidazole] has a Kd of 1000 nM.

O=C(c1ccccc1)N1CCN(C2CN(C(=O)c3ccc(F)cc3)C2)CC1 [Cpd 49, 1-{1-[(4-Fluorophenyl)carbonyl]azetidin-3-yl}-4-(phenylcarbonyl)piperazine] showed a Kd of 6670 nM.

For O=C(c1ccccc1)N1CCN(C2CN(C(=O)c3cnc(NCc4ccccc4)s3)C2)CC1 [Cpd 50, N-Benzyl-5-({3-[4-(phenylcarbonyl)piperazin-1-yl]azetidin-1-yl}carbonyl)-1,3-thiazol-2-amine], the Kd was 10000 nM.

Cn1c2ccccc2c2cc(C(=O)N3CC(N4CCN(C(=O)c5ccccc5)CC4)C3)ccc21 [Cpd 51, 9-Methyl-3-({3-[4-(phenylcarbonyl)piperazin-1-yl]azetidin-1-yl}carbonyl)-9H-carbazole] gave a Kd of 250 nM.
